According to US20260374766A1, “METHODS FOR TREATING CANCER” (Antares Therapeutics, Inc., priority 2022, published 2026):
Where two headings read alike, the source gives them in different places.

Key:
[1] = biological target: T1, p53 Y220C mutant protein (amino acid residues 94-293) (Homo sapiens, UniProt P04637, Y220C); assay: Thermal Shift Assay (TSA), dTM; type: binding; details: read-out: TSA P53 Y220C dTM; for ΔTm at 10 µM: 10 uM compound
T1 construct: p53 Y220C mutant protein (amino acid residues 94-293)
Outline: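 Sypro Orange melt (30→50 °C, 0.03 °C/s) with TM taken from a Boltzmann two-state fit. Protein (residues 94-293) at 5 μM was pre-incubated 3 h at 20 °C with compound at 10 μM or 100 μM in pH 7.4 HEPES/NaCl buffer containing 0.01% Pluronic F-127 and 1% DMSO.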

H1299 p53 Y220C = assay: Cell Proliferation Assay (CellTiter-Glo, CTG), H1299 p53 Y220C (NClH1299-inducible p53 Y220C); type: cell-based; details: Homo sapiens, NCI-H1299, 120 h, NClH1299-inducible p53 Y220C cells, 5 days
Outline: (§1)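 NClH1299 lines stably transduced with Tet-inducible p53 Y220C or R273H, plus NUGC3, were treated with compound for 5 days at 250-500 cells/well. IC50 derived from CellTiter-Glo luminescent signal after 10 min room-temperature incubation.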

NUGC3 p53 Y220C = assay: Cell Proliferation Assay (CellTiter-Glo, CTG), NUGC3 p53 Y220C; type: cell-based; details: Homo sapiens, NUGC-3, 120 h, NUGC3 cells, 5 days
Outline: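 Tet-One inducible p53 Y220C or R273H constructs were stably introduced into NCI-H1299 by lentiviral transduction; NUGC3 was used as is. Cells (250-500 per well) were exposed to compound for 5 days, then CellTiter-Glo was added for 10 min at room temperature and IC50 was calculated from luminescence.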

p53 Y220C = p53 Y220C (Homo sapiens, UniProt P04637, Y220C); assay: Luciferase Reporter Assay (Luc), p53 response element, NClH1299 cells with inducible p53 Y220C; type: cell-based; details: 6 hour; for AC50: read-out: Luc P53 Y220C AC50
Outline: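 Cells were seeded at 5,000 per well and induced with 0.5 ug/mL doxycycline for 24 hours, then exposed to compound for 6 hours. One-Glo reagent was added, plates shaken 5 minutes at room temperature, and luminescence read immediately.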

[2] = biological target: T1, p53 Y220C mutant protein (amino acid residues 94-293); assay: Surface Plasmon Resonance (SPR) assay, Kd_kinetic; type: binding; details: SPR; p53 Y220C; read-out: SPR P53 Y220C KD kinetic
Outline: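 Biacore 8K SPR; 16 or 20 °C; Tris 50 mM pH 7.5, NaCl 100 mM, DTT 1 mM, Brij35 0.01%, Tween-20 0.05%, DMSO 1%. Kd_kinetic by 1:1 fit.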

H1299 p53 R273H = assay: Cell Proliferation Assay (CellTiter-Glo, CTG), H1299 p53 R273H (NClH1299-inducible p53 R273H); type: cell-based; details: Homo sapiens, NCI-H1299, 120 h, NClH1299-inducible p53 R273H cells, 5 days
Outline: as §1

[3] = luciferase reporter, NClH1299 inducible p53 Y220C

| ΔTm at 10 µM ([1]; p53 Y220C) [°C] | IC50 (H1299 p53 Y220C; CellTiter-Glo) [nM] | AC50 (p53 Y220C; [3]) [nM] | Emax (p53 Y220C; [3]) [%] | Kd [2] [nM] | IC50 (H1299 p53 R273H; CellTiter-Glo) [µM] | ΔTm at 10 µM [1] [°C] | ΔTm at 100 µM ([1]; 100 uM compound) [°C] | IC50 (H1299 p53 Y220C) [nM] | AC50 (p53 Y220C; NClH1299 cells with inducible p53 Y220C) [nM] | Emax (p53 Y220C; NClH1299 cells with inducible p53 Y220C, 10 uM tool compound as positive control) [%] | IC50 (H1299 p53 R273H) [µM] | Structure (SMILES) | IC50 (NUGC3 p53 Y220C; CellTiter-Glo) [nM] | IC50 (NUGC3 p53 Y220C) [nM] |
| --- | --- | --- | --- | --- | --- | --- | --- | --- | --- | --- | --- | --- | --- | --- |
| ≥ 10 | < 750 | < 750 | > 90 | < 10 | ≥ 10 |  |  |  |  |  |  | CNC(=O)CN1CC[C@@H](Nc2nccn3c(SC(F)(F)F)c(C#CCNc4cc(C(=O)NC)ccc4OC)cc23)[C@@H](F)C1 [Example 352] | < 750 |  |
| ≥ 10 | < 750 | < 750 | > 90 | < 10 | ≥ 10 |  |  |  |  |  |  | CNC(=O)c1ccc(OC)c(NCC#Cc2cc3c(N[C@@H]4CCN(CC#N)C[C@@H]4F)nccn3c2SC(F)(F)F)c1 [Example 353] | < 750 |  |
| ≥ 10 | < 750 | < 750 | > 90 | < 10 | 5 to 8 |  |  |  |  |  |  | CNC(=O)c1ccc(NCC#Cc2cc3c(N[C@@H]4CCNC[C@@H]4F)cccn3c2SC(F)(F)F)c(OC)c1 [Example 354] | < 750 |  |
| ≥ 10 | < 750 | < 750 | > 90 | < 10 | 5 to 8 |  |  |  |  |  |  | CNC(=O)c1ccc(NCC#Cc2cc3c(N[C@@H]4CCN(C)C[C@@H]4F)cccn3c2SC(F)(F)F)cc1 [Example 357] | < 750 |  |
| ≥ 10 | < 750 | < 750 | > 90 | < 10 | ≥ 10 |  |  |  |  |  |  | COc1ccc(C(=O)NC[C@H](C)O)cc1NCC#Cc1cc2c(N[C@@H]3CCN(C)C[C@@H]3F)nccn2c1SC(F)(F)F [Example 358] | < 750 |  |
| ≥ 10 | < 750 | < 750 | > 90 | < 10 | ≥ 10 |  |  |  |  |  |  | COc1ccc(C(=O)NC[C@@H](C)O)cc1NCC#Cc1cc2c(N[C@@H]3CCN(C)C[C@@H]3F)nccn2c1SC(F)(F)F [Example 359] | < 750 |  |
|  |  |  |  | 10 to 100 |  | 5 to 10 | 5 to 10 | > 3000 | > 3000 | < 70 | ≥ 10 | CN1CC[C@@H](Nc2cccn3c(SC(F)(F)F)c(-c4noc(CNC(=O)C5CC5)n4)nc23)[C@@H](F)C1 [Example 458] |  | > 3000 |
